Here are results for 30 molecules from US20250136576A1, “Heterocyclic Compounds and Uses Thereof” (ACEA Therapeutics, Inc., priority 2021, published 2025).

In general, IC50 refers to the concentration that inhibits the measured activity by half.

A value given as a limit tells only on which side of the number the result lay.

The subject of one assay is KM12-luc cells. Kind of assay: Cell proliferation and growth inhibition assay (CCK-8) in KM12-luc. The class given is cell-based. Conditions: KM12-Luc, 72 h, KM12-luc cells, treated with test compounds for 72 hrs, CCK-8 viability; read-out: NTRK IC50 in KM12-luc. In short, it runs like this: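 IC50 values were fitted by sigmoidal dose-response non-linear regression of CCK-8 OD450 absorbance after 1-4 hrs with reagent. Culture media were IMDM for MV-4-11, RPMI 1640 for H1975 and DMEM for KM12-luc, each with 10% FBS at 37 °C, 5% CO2.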
As to `CC(=O)Nc1cc(Nc2ncc(Cl)c(-c3c[nH]c4ccccc34)n2)ccc1NC(=O)CN(C)C` [Compound 393, N-(2-acetamido-4-((5-chloro-4-(1H-indol-3-yl)pyrimidin-2-yl)amino)phenyl)-2-(dimethylamino)acetamide], the IC50 was determined as 23.1 nM.

With `CC(=O)Nc1cc(Nc2ncc(Cl)c(-c3c[nH]c4ccccc34)n2)ccc1NC(=O)CCN(C)C` [Compound 394a, N-(2-acetamido-4-((5-chloro-4-(1H-indol-3-yl)pyrimidin-2-yl)amino)phenyl)-3-(dimethylamino)propanamide], the IC50 came out at 29.1 nM.

For the molecule `Cc1nc2ccc(Nc3ncc(Cl)c(-c4c[nH]c5ccccc45)n3)cc2[nH]1` [Compound 394b, N-(5-chloro-4-(1H-indol-3-yl)pyrimidin-2-yl)-2-methyl-1H-benzo[d]imidazol-6-amine], the IC50 turned out to be 131 nM.

For the molecule `CC(=O)Nc1cc(Nc2ncc(Cl)c(-c3cn(C)c4ccccc34)n2)ccc1N(C)CCN(C)C` [Compound 395, N-(5-((5-chloro-4-(1-methyl-1H-indol-3-yl)pyrimidin-2-yl)amino)-2-((2-(dimethylamino)ethyl)(methyl)amino)phenyl)acetamide], the IC50 turned out to be 77.3 nM.

Turning to `CC(=O)Nc1cc(Nc2ncc(Cl)c(-c3cn(C)c4ccccc34)n2)cc(F)c1N(C)CCN(C)C` [Compound 396, N-(5-((5-chloro-4-(1-methyl-1H-indol-3-yl)pyrimidin-2-yl)amino)-2-((2-(dimethylamino)ethyl)(methyl)amino)-3-fluorophenyl)acetamide], the IC50 worked out at 80.3 nM.

As for `CCN(CCN(C)C)c1ccc(Nc2ncc(Cl)c(-c3cn(C)c4ccccc34)n2)cc1NC(C)=O` [Compound 397, N-(5-((5-chloro-4-(1-methyl-1H-indol-3-yl)pyrimidin-2-yl)amino)-2-((2-(dimethylamino)ethyl)(ethyl)amino)phenyl)acetamide], the IC50 was 180 nM.

Turning to `CCN(CCN(C)C)c1c(F)cc(Nc2ncc(Cl)c(-c3cn(C)c4ccccc34)n2)cc1NC(C)=O` [Compound 398, N-(5-((5-chloro-4-(1-methyl-1H-indol-3-yl)pyrimidin-2-yl)amino)-2-((2-(dimethylamino)ethyl)(ethyl)amino)-3-fluorophenyl)acetamide], the IC50 is 196 nM.

On to `Cc1nc2cc(Nc3ncc(Cl)c(-c4cn(C)c5ccccc45)n3)ccc2n1CCN(C)C` [Compound 400b, N-(5-chloro-4-(1-methyl-1H-indol-3-yl)pyrimidin-2-yl)-1-(2-(dimethylamino)ethyl)-2-methyl-1H-benzo[d]imidazol-5-amine], for which the IC50 came out at 71.5 nM.

As for `CC(=O)Nc1cc(Nc2ncc(Cl)c(-c3cn(C)c4ccccc34)n2)cc(F)c1N1CCC(N(C)C)C1` (stereo not drawn) [Compound 401, N-(5-((5-chloro-4-(1-methyl-1H-indol-3-yl)pyrimidin-2-yl)amino)-2-(3-(dimethylamino)pyrrolidin-1-yl)-3-fluorophenyl)acetamide], the IC50 came out at 49.5 nM.

For `CC(=O)Nc1cc(Nc2ncc(Cl)c(-c3cn(C)c4ccccc34)n2)ccc1N(C)C(=O)CN(C)C` [Compound 403, N-(2-acetamido-4-((5-chloro-4-(1-methyl-1H-indol-3-yl)pyrimidin-2-yl)amino)phenyl)-2-(dimethylamino)-N-methylacetamide], the IC50 is 46.5 nM.

`CC(=O)Nc1cc(Nc2ncc(Cl)c(-c3cn(C)c4ccccc34)n2)ccc1N(C)C(=O)CCN(C)C` [Compound 404, N-(2-acetamido-4-((5-chloro-4-(1-methyl-1H-indol-3-yl)pyrimidin-2-yl)amino)phenyl)-3-(dimethylamino)-N-methylpropanamide]: the IC50 came to 26.5 nM.

As to `CCN(C(=O)CN(C)C)c1ccc(Nc2ncc(Cl)c(-c3cn(C)c4ccccc34)n2)cc1NC(C)=O` [Compound 405, N-(2-acetamido-4-((5-chloro-4-(1-methyl-1H-indol-3-yl)pyrimidin-2-yl)amino)phenyl)-2-(dimethylamino)-N-ethylacetamide], the IC50 was > 1000 nM.

For `CCN(C(=O)CCN(C)C)c1ccc(Nc2ncc(Cl)c(-c3cn(C)c4ccccc34)n2)cc1NC(C)=O` [Compound 406, N-(2-acetamido-4-((5-chloro-4-(1-methyl-1H-indol-3-yl)pyrimidin-2-yl)amino)phenyl)-3-(dimethylamino)-N-ethylpropanamid], the IC50 is 60.1 nM.

Consider `CC(=O)Nc1cc(Nc2ncc(Cl)c(-c3cn(C)c4ccccc34)n2)ccc1NC(=O)CN(C)C` [Compound 407, N-(2-acetamido-4-((5-chloro-4-(1-methyl-1H-indol-3-yl)pyrimidin-2-yl)amino)phenyl)-2-(dimethylamino)acetamide], for which the IC50 was 44.4 nM.

Take `CC(=O)Nc1cc(Nc2ncc(Cl)c(-c3cn(C)c4ccccc34)n2)ccc1NC(=O)CCN(C)C` [Compound 408, N-(2-acetamido-4-((5-chloro-4-(1-methyl-1H-indol-3-yl)pyrimidin-2-yl)amino)phenyl)-3-(dimethylamino)propanamide]: the IC50 was determined as 19.7 nM.

Take `CN(C)CCN(C)c1ccc(Nc2ncc(Cl)c(-c3c[nH]c4c(F)cccc34)n2)cc1N` [Compound 411, N^4-(5-chloro-4-(7-fluoro-1H-indol-3-yl)pyrimidin-2-yl)-N^1-(2-(dimethylamino)ethyl)-N^1-methylbenzene-1,2,4-triamine]: the IC50 stood at 12.8 nM.

As for `CN(C)CCN(C)c1ccc(Nc2ncc(Cl)c(-c3cn(C)c4c(F)cccc34)n2)cc1N` [Compound 417, N^4-(5-chloro-4-(7-fluoro-1-methyl-1H-indol-3-yl)pyrimidin-2-yl)-N^1-(2-(dimethylamino)ethyl)-N^1-methylbenzene-1,2,4-triamine], the IC50 is 94.2 nM.

For the molecule `CC(=O)Nc1cc(Nc2ncc(Cl)c(-c3cn(C)c4c(F)cccc34)n2)ccc1N(C)CCN(C)C` [Compound 418, N-(5-((5-chloro-4-(7-fluoro-1-methyl-1H-indol-3-yl)pyrimidin-2-yl)amino)-2-((2-(dimethylamino)ethyl)(methyl)amino)phenyl)acetamide], the IC50 amounted to 79.2 nM.

For `Cc1cccc2c(-c3nc(Nc4ccc(N(C)CCN(C)C)c(N)c4)ncc3Cl)cn(C)c12` [Compound 428, N^4-(5-chloro-4-(1,7-dimethyl-1H-indol-3-yl)pyrimidin-2-yl)-N^1-(2-(dimethylamino)ethyl)-N^1-methylbenzene-1,2,4-triamine], the IC50 was 46.4 nM.

With `CC(=O)Nc1cc(Nc2ncc(Cl)c(-c3cn(C)c4c(C)cccc34)n2)ccc1N(C)CCN(C)C` [Compound 429, N-(5-((5-chloro-4-(1,7-dimethyl-1H-indol-3-yl)pyrimidin-2-yl)amino)-2-((2-(dimethylamino)ethyl)(methyl)amino)phenyl)acetamide], the IC50 is 475 nM.

Turning to `COc1cccc2c(-c3nc(Nc4ccc(N(C)CCN(C)C)c(NC(C)=O)c4)ncc3Cl)cn(C)c12` [Compound 434, N-(5-(5-chloro-4-(7-methoxy-1-methyl-1H-indol-3-yl)pyrimidin-2-ylamino)-2-((2-(dimethylamino)ethyl)(methyl)amino)phenyl)acetamide], the IC50 is 97.1 nM.

For the molecule `COc1cccc2c(-c3nc(Nc4ccc(N(C)CCN(C)C)c(N)c4)ncc3Cl)cn(C)c12` [Compound 437, N^4-(5-chloro-4-(7-methoxy-1-methyl-H-indol-3-yl)pyrimidin-2-yl)-N^1-(2-(dimethylamino)ethyl)-N^1-methylbenzene-1,2,4-triamine], the IC50 was 109 nM.

`CC(=O)Nc1cc(Nc2ncc(Cl)c(-c3c[nH]c4ccccc34)n2)cc(F)c1N(C)CCN(C)C` [Compound 441, N-(5-((5-chloro-4-(1H-indol-3-yl)pyrimidin-2-yl)amino)-2-((2-(dimethylamino)ethyl)(methyl)amino)-3-fluorophenyl)acetamide]: the IC50 was determined as 24.9 nM.

Turning to `CCN(CCN(C)C)c1c(F)cc(Nc2ncc(Cl)c(-c3c[nH]c4ccccc34)n2)cc1NC(C)=O` [Compound 443, N-(5-((5-chloro-4-(1H-indol-3-yl)pyrimidin-2-yl)amino)-2-((2-(dimethylamino)ethyl) (ethyl)amino)-3-fluorophenyl)acetamide], the IC50 was 33.3 nM.

For the molecule `CCN(C(=O)CN(C)C)c1ccc(Nc2ncc(Cl)c(-c3c[nH]c4ccccc34)n2)cc1N` [Compound 448, N-(2-amino-4-((5-chloro-4-(1H-indol-3-yl)pyrimidin-2-yl)amino)phenyl)-2-(dimethylamino)-N-ethylacetamide], the IC50 is > 1000 nM.

Regarding `CCN(C(=O)CN(C)C)c1ccc(Nc2ncc(Cl)c(-c3c[nH]c4ccccc34)n2)cc1NC(C)=O` [Compound 449, N-(2-acetamido-4-((5-chloro-4-(1H-indol-3-yl)pyrimidin-2-yl)amino)phenyl)-2-(dimethylamino)-N-ethylacetamide], the IC50 was > 1000 nM.

As to `CCN(C(=O)CCN(C)C)c1ccc(Nc2ncc(Cl)c(-c3c[nH]c4ccccc34)n2)cc1NC(C)=O` [Compound 451, N-(2-acetamido-4-((5-chloro-4-(1H-indol-3-yl)pyrimidin-2-yl)amino)phenyl)-3-(dimethylamino)-N-ethylpropanamide], the IC50 is 14.2 nM.

Consider `CN1CCN(c2ccc(C(=O)Nc3c[nH]c4cnc(Nc5cc(F)cc(F)c5)nc34)c(NC3CCOCC3)c2)CC1` [Compound 491, N-(2-((3,5-difluorophenyl)amino)-5H-pyrrolo[3,2-d]pyrimidin-7-yl)-4-(4-methylpiperazin-1-yl)-2-((tetrahydro-2H-pyran-4-yl)amino)benzamide], for which the IC50 was > 3330 nM.

`CN(C)CCN(C)c1ccc(C(=O)Nc2c[nH]c3cnc(Nc4cc(F)cc(F)c4)nc23)c(NC2CCOCC2)c1` [Compound 493, N-(2-((3,5-difluorophenyl)amino)-5H-pyrrolo[3,2-d]pyrimidin-7-yl)-4-((2-(dimethylamino)ethyl)(methyl)amino)-2-((tetrahydro-2H-pyran-4-yl)amino)benzamide]: the IC50 is > 10000 nM.

The assay is the same for the next values; noted with them: KM12-luc cells, treated with test compounds for 72 hrs, CCK-8 viability; read-out: NTRK IC50 in KM12-luc.
`CC(=O)Nc1cc(Nc2ncc(Cl)c(-c3c[nH]c4ccccc34)n2)ccc1N(C)CCN(C)C` [Compound 440]: the IC50 came out at 7 nM.
